Key:
[1] = target: T1, zinc-mediated β-amyloid aggregation (Homo sapiens, UniProt P05067); test: Anti-amyloid aggregation assay, BCA; assay type: biochemical; details: detected by BCA
Method: (§1) Anti-Amyloid Aggregation Assay.
(§2) The effects of compounds on inhibition of β-amyloid aggregation were assayed. The levels of β-amyloid aggregates were determined by thioflavin S, BCA or CR assays (Tables 1). Thioflavin S, and Congo red are for in vitro staining of aggregated β-amyloid. Bicinchoninic acid (BCA) assay determines the total protein level or concentration.

SH-SY5Y cells [2] = test: Neurite synaptic uptake activity (FM1-43), SH-SY5Y; assay type: cell-based; details: Homo sapiens, NGF positive control taken as 100%, read-out: uptake of dye FM1-43 EC50
Method: (§3) Neurite Synaptic Uptake Activity Analysis.
(§4) The effects of compounds on the neuronal synapse uptake of fluorescent indicator FM1-43 were assayed. The uptake of the dye indicated the synaptic function of the neurites. PC 12 and SH-SY5Y cells were used. Cells in experimental groups were treated with a test compound and FM1-43; Cells in positive control were treated with NGF and FM1-43; Cells in negative control were treated with a vehicle and FM1-43. The fluorescence in the positive control were taken as 100%.

[3] = target: T2, human histone deacetylases (HDAC) 8 (Homo sapiens, UniProt Q9BY41); test: HDAC enzymatic assay, HDAC8; assay type: biochemical; details: HDAC8; read-out: IC50 HDAC8 (grading)
T2 sequence (Q9BY41 1-377): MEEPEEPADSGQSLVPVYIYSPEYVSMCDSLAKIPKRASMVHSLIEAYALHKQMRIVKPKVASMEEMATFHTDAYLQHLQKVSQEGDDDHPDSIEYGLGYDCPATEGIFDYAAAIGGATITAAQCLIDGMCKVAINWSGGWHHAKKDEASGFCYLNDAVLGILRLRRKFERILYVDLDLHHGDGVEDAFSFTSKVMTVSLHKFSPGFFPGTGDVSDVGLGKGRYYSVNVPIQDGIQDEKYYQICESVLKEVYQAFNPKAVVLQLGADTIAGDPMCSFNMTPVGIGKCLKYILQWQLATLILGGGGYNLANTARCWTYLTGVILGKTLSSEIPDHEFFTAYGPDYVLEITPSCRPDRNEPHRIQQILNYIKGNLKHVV

[4] = target: T3, human histone deacetylases (HDAC) 6 (Homo sapiens, UniProt Q9UBN7); test: HDAC enzymatic assay, HDAC6; assay type: biochemical; details: for IC50: HDAC6, read-out: IC50 HDAC6 (grading); for selective inhibitions on HDAC6: HDAC6 versus other HDACs
T3 sequence (Q9UBN7 1-1215): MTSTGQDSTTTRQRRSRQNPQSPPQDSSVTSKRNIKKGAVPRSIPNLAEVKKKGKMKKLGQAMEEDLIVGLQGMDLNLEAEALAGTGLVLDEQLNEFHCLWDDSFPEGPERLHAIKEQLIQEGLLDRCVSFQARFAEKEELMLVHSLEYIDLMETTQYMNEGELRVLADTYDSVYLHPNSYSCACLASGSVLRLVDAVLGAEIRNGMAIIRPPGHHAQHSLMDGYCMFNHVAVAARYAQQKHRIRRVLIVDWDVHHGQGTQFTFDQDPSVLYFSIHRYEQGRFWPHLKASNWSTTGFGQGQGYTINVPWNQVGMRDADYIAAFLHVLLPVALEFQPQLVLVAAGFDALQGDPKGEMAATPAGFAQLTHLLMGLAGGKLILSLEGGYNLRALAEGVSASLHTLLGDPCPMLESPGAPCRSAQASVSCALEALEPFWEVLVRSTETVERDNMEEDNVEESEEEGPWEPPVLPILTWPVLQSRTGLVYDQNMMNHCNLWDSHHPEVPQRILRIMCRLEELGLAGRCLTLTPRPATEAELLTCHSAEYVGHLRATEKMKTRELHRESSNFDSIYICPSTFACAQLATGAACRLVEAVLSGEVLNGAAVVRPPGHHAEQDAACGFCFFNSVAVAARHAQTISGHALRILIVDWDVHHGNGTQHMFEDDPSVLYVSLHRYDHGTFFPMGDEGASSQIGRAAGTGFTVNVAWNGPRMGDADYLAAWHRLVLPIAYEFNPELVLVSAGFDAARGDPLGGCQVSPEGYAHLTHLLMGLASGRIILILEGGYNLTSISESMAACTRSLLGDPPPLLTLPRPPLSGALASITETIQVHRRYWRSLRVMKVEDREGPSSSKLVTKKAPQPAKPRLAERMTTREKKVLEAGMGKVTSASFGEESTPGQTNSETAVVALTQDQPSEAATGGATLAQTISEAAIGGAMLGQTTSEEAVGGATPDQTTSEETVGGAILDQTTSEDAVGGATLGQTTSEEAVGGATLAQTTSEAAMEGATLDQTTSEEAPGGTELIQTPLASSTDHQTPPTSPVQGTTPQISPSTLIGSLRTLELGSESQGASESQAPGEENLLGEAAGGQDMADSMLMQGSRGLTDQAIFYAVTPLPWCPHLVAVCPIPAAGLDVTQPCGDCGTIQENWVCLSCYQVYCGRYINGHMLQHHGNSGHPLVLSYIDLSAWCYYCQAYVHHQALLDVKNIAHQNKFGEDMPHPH

PC 12 cells [5] = test: Neurite synaptic uptake activity (FM1-43), PC 12; assay type: cell-based; details: Rattus norvegicus, NGF positive control taken as 100%, read-out: uptake of dye FM1-43 EC50
Method: as §3, §4

[6] = target: T1, zinc-mediated β-amyloid aggregation; test: Anti-amyloid aggregation assay, CR (Congo red); assay type: biochemical; details: detected by CR
Method: as §1, §2

[7] = target: human histone deacetylases (HDAC) 1 (Homo sapiens, UniProt Q13547); test: HDAC enzymatic assay, HDAC1; assay type: biochemical; details: read-out: IC50 HDAC1 (grading)
PC 12 cells [8] = test: Neurite outgrowth assay, PC 12; assay type: cell-based; details: Rattus norvegicus
SH-SY5Y cells [9] = test: Neurite outgrowth assay, SH-SY5Y; assay type: cell-based; details: Homo sapiens
[10] = target: T1, zinc-mediated β-amyloid aggregation; test: Anti-amyloid aggregation assay, thioflavin S; assay type: biochemical; details: detected by thioflavin S
Method: as §1, §2

[11] = MTT or SRB assay for cytotoxicity, PANC1; assay type: cell-based; details: human, PANC-1 cells, read-out: cytotoxicity IC50 (grading) PANC1
Method: (§5) MTT or SRB Assays for Cytotoxicities of HDAC Inhibitors.
(§6) These compounds were assayed for cytotoxicities to the following cells: A549 cells (adenocarcinomic human alveolar basal epithelial cells), HCT-116 cells (human colon carcinoma cells). PANC-1 cells (human pancreatic carcinoma, epithelial-like cell line) and HepG2 cells (human liver hepatocellular carcinoma cell line), neuronal cells PC12 (rat pheochromocytoma cell line) and SH-SY5Y (human neuroblastoma cell line). MTT (3-[4,5-dimethylthiazol-2-yl]2,5-diphenyl-tetrazolium bromide) reduction was collaborated by using trypan blue exclusion assay.

[12] = MTT or SRB assay for cytotoxicity, A549; assay type: cell-based; details: human, A549 cells, read-out: cytotoxicity IC50 (grading) A549
Method: as §5, §6

[13] = MTT or SRB assay for cytotoxicity, HepG2; assay type: cell-based; details: human, HepG2 cells, read-out: cytotoxicity IC50 (grading) HepG2
Method: as §5, §6

[14] = MTT or SRB assay for cytotoxicity, HCT116; assay type: cell-based; details: human, HCT-116 cells, read-out: cytotoxicity IC50 (grading) HCT116
Method: as §5, §6

T1 sequence (P05067 672-711 limits assumed): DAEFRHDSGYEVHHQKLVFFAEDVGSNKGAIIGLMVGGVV
Chain of human histone deacetylases (HDAC) 1 (Q13547 whole entry): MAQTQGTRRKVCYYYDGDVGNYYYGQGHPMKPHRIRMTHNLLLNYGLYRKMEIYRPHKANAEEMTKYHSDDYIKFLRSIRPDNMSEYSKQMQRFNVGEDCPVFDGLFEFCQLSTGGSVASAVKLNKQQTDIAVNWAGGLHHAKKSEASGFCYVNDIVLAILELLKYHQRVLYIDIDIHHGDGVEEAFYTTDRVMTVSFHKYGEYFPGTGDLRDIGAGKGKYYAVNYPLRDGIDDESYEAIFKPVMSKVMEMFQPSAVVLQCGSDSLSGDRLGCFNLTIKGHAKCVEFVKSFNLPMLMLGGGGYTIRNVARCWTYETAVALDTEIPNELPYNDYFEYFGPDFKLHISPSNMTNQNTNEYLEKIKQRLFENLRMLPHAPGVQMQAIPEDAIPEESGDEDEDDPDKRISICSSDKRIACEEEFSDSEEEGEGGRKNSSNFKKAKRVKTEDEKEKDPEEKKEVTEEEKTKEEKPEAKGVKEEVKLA

Row | IC50 [1] [µM] | EC50 (SH-SY5Y cells [2]) [µM] | IC50 [3] [µM] | IC50 [4] [µM] | EC50 (PC 12 cells [5]) [µM] | IC50 [6] [µM] | IC50 [7] [µM] | selective inhibitions on HDAC6 [4] | EC50 (SH-SY5Y cells [9]) [µM] | IC50 [10] [µM] | melting point | Compound | EC50 (PC 12 cells [8]) [µM] | IC50 [11] [µM] | IC50 [12] [µM] | IC50 [13] [µM] | IC50 [14] [µM]
1 | 10.1 | 14.7 ± 1.58 | 1 to 10 | < 0.1 | 8.15 ± 0.39 | 30.2 | > 10 | – | – | – | – | Cc1nc2cccc(/C=C/C(=O)NO)c2c(=O)n1-c1ccccc1 [Compound 1a, (2E)-3-(3,4-dihydro-2-methyl-4-oxo-3-phenylquinazolin-5-yl)-N-hydroxyacrylamide] | – | – | – | – | –
2 | 10.1 | – | 0.1 to 1 | < 0.1 | – | 4.8 | 1 to 10 | selective inhibitions on HDAC6 | – | – | – | Cc1nc2ccc(/C=C/C(=O)NO)cc2c(=O)n1-c1ccccc1 [Compound 1b, (2E)-3-(3,4-dihydro-2-methyl-4-oxo-3-phenylquinazolin-6-yl)-N-hydroxyacrylamide] | – | – | – | – | –
3 | 11.7 | 8.03 ± 0.53 | 0.1 to 1 | 0.1 to 1 | 7.81 ± 0.65 | 14.5 | > 10 | – | – | – | – | Cc1nc2c(/C=C/C(=O)NO)cccc2c(=O)n1-c1ccccc1 [Compound 1d, (2E)-3-(3,4-dihydro-2-methyl-4-oxo-3-phenylquinazolin-8-yl)-N-hydroxyacrylamide] | – | – | – | – | –
4 | 10.6 | 8.2 ± 0.92 | 1 to 10 | < 0.1 | 8.21 ± 0.37 | 5.8 | 1 to 10 | selective inhibitions on HDAC6 | 8.2 ± 0.92 | 18.1 | – | Cc1nc2cc(/C=C/C(=O)NO)ccc2c(=O)n1Cc1ccccc1 [Compound 1e, (2E)-3-(3-benzyl-3,4-dihydro-2-methyl-4-oxoquinazolin-7-yl)-N-hydroxyacrylamide] | 8.21 ± 0.37 | – | – | – | –
5 | 11.1 | – | 1 to 10 | < 0.1 | – | 15.5 | 0.1 to 1 | selective inhibitions on HDAC6 | – | 7.4 | – | Cc1nc2cc(/C=C/C(=O)NO)ccc2c(=O)n1CCc1c[nH]c2ccccc12 [Compound 1g, (2E)-3-(3-(2-(1H-indol-3-yl)ethyl)-3,4-dihydro-2-methyl-4-oxoquinazolin-7-yl)-N-hydroxyacrylamide] | – | – | – | – | –
6 | 35 | 4.93 ± 1.34 | 0.1 to 1 | < 0.1 | 14.5 ± 1.47 | 14.6 | 0.1 to 1 | selective inhibitions on HDAC6 | 4.93 ± 1.34 | 5.5 | 197 to 199 °C (dec.) | O=C(/C=C/c1ccc2c(=O)n(CCc3ccccc3)cnc2c1)NO [Compound 1h, (2E)-3-(3,4-dihydro-4-oxo-3-phenethylquinazolin-7-yl)-N-hydroxyacrylamide] | 14.5 ± 1.47 | – | – | – | –
7 | 3.9 | 0.88 ± 0.45 | 1 to 10 | < 0.1 | 7.21 ± 0.32 | 5.5 | 1 to 10 | selective inhibitions on HDAC6 | 0.88 ± 0.45 | 6.8 | 209 to 211 °C | CCc1nc2cc(/C=C/C(=O)NO)ccc2c(=O)n1CCc1ccccc1 [Compound 1i, (2E)-3-(2-ethyl-3,4-dihydro-4-oxo-3-phenethylquinazolin-7-yl)-N-hydroxyacrylamide] | 7.21 ± 0.32 | ≥ 10 | ≥ 10 | 1 to 10 | ≥ 10
8 | – | 20.6 ± 2.51 | 0.1 to 1 | < 0.1 | 20.6 ± 3.12 | – | 1 to 10 | – | 20.6 ± 2.51 | – | 215 to 217 °C | CCc1nc2cc(/C=C/C(=O)NO)ccc2c(=O)n1CCc1ccc(OC)cc1 [Compound 1m] | 20.6 ± 3.12 | 1 to 10 | 1 to 10 | 1 to 10 | 1 to 10
9 | – | 22.2 ± 2.01 | 0.1 to 1 | < 0.1 | 13.9 ± 0.94 | – | 1 to 10 | – | 22.2 ± 2.01 | – | 195 to 197 °C (dec.) | CCc1nc2cc(/C=C/C(=O)NO)ccc2c(=O)n1CCc1ccc(F)cc1 [Compound 1n, (2E)-3-(3-(4-fluorophenethyl)-2-ethyl-3,4-dihydro-4-oxoquinazolin-7-yl)-N-hydroxyacrylamide] | 13.9 ± 0.94 | 1 to 10 | 1 to 10 | 1 to 10 | 1 to 10
10 | – | – | 0.1 to 1 | < 0.1 | 0.78 ± 0.49 | – | 1 to 10 | selective inhibitions on HDAC6 | – | – | 183 to 185 °C (dec.) | CCc1nc2cc(F)c(/C=C/C(=O)NO)cc2c(=O)n1CCc1ccccc1 [Compound 3a, (2E)-3-(2-ethyl-7-fluoro-3,4-dihydro-4-oxo-3-phenethylquinazolin-6-yl)-N-hydroxyacrylamide] | – | ≥ 10 | 1 to 10 | ≥ 10 | ≥ 10
11 | – | – | – | < 0.1 | – | – | – | selective inhibitions on HDAC6 | – | – | 181 to 183 °C (dec.) | CCc1nc2cc(Cc3ccc(C(=O)NO)cc3)ccc2c(=O)n1CCc1ccccc1 [Compound 4b, 4-((2-ethyl-3,4-dihydro-4-oxo-3-phenethylquinazolin-7-yl)methyl)-N-hydroxybenzamide] | – | 1 to 10 | 1 to 10 | 0.1 to 1 | 1 to 10
